Source: publication PMC10817917, “Alkyl deoxyglycoside-polymyxin combinations against critical priority carbapenem-resistant gram-negative bacteria” (Scientific Reports, 2024)
In brackets after ≈: the same amount, converted by molar mass. Like-named read-outs stand apart in the source and are kept apart here.

Assays:
K. pneumoniae CQ1942 = assay: Broth microdilution MIC, glycosides with or without polymyxins; assay type: cell-based, Klebsiella pneumoniae; conditions: strain E
E. coli ATCC 25922 = assay: Broth microdilution MIC/MBC, glycosides with or without polymyxins; assay type: cell-based, Escherichia coli; conditions: strain A
K. pneumoniae CQ1947 = assay: Broth microdilution MIC, glycosides with or without polymyxins; assay type: cell-based, Klebsiella pneumoniae; conditions: strain F
P. aeruginosa CQ4924 = assay: as above; assay type: cell-based, Pseudomonas aeruginosa; conditions: strain H; for MIC (antibiotic susceptibility profile) / RIS (susceptibility category): antibiotic alone
K. pneumoniae CQ4921 = assay: Broth microdilution MIC/MBC, glycosides with or without polymyxins; assay type: cell-based, Klebsiella pneumoniae; conditions: strain C
A. baumannii CQ4322 = assay: as above; assay type: cell-based, Acinetobacter baumannii; conditions: strain G; for MIC (antibiotic susceptibility profile) / RIS (susceptibility category): antibiotic alone
E. cloacae CQ1941 = assay: as above; assay type: cell-based; conditions: strain D
HEK-293T cells = assay: Resazurin cell viability assay (cytotoxicity); assay type: cell-based, human; conditions: tested alone (no polymyxin adjuvant); 72 h
Protocol: (§1) Cytotoxicity of each compound alone or in combination with different polymyxin concentrations was evaluated through the resazurin cell viability assay[49] in human embryonic HEK-293T cells, as well as in human colon adenocarcinoma Caco-2 cells, after a 72-h long incubation period.
(§2) HEK-293T and Caco-2 cells were grown in RPMI 1640 medium (VWR) supplemented with 10% FBS (Biowest), 1% PenStrep (Sigma Aldrich), and 1% glutamine (Biowest) in a humidified incubator at 37 °C with a 5% CO2 atmosphere. Twice a week, the medium was aspirated, the cells were washed with DPBS (VWR), trypsinized with trypsin–EDTA solution (Biowest), and resuspended in fresh culture medium. The dose-dependent effects of each glycoside or glycoside-polymyxin combination were evaluated by the resazurin cell viability assay. Polymyxins (colistin sulfate and PMB sulfate for microbiological assays, European Pharmacopoeia Reference Standards, Sigma-Aldrich) were firstly dissolved in sterilized Mili-Q water to a stock concentration of 1 mg/mL, while glycosides were dissolved in DMSO to a stock concentration of 30 mM. 1.5 × 10^4 cells/well in 96.5 µL of medium were seeded onto 96-well plates and incubated at 37 °C for 24 h. For each compound, ten stock dilutions (with concentrations from 750 to 75 µM) were prepared in fresh medium immediately prior to incubation. 16 µL of each dilution were added to each well so that the final glycoside concentrations ranged from 100 to 10 µM in each row in a final assay volume of 120 µL. In addition, the previously prepared polymyxin stock solutions were diluted in fresh medium, affording new stocks of 8, 4, and 2 µg/mL. The same volume (7.5 µL/well) of PMB or colistin was then added to each row to achieve a final polymyxin concentration of 0.5, 0.25, and 0.125 µg/mL, respectively, regardless of the glycoside concentration. In assays without polymyxin, the same volume (7.5 µL/well) of medium was added. In all assays, the maximum DMSO concentration was 0.33%. After a 72-h incubation at 37 °C, 12 µL of a 0.15 mg/mL resazurin (Sigma-Aldrich) in sterilized Mili-Q water were added to each well, and the plates were left incubating for another 4 h at 37 °C. Resorufin was measured at 570/600 nm, and the percentage of resazurin reduction, corresponding to the cell viability percentage, was calculated according to Eq. (1)[60]. IC50 values were obtained by best fitting the dose-dependent inhibition curves using the Prism 9® software. The results were expressed as the mean ± SD of three independent replicates, with only data from analysis with R^2 > 0.90 being considered.1 %Cellviability=Abssample-Absmediumcontrol/Abscellcontrol-Absmediumcontrol×100

Caco-2 cells = assay: Resazurin cell viability assay (cytotoxicity); assay type: cell-based, human; conditions: tested alone (no polymyxin adjuvant); 72 h
Protocol: as §1, §2

E. coli NCTC 13846 = assay: Broth microdilution MIC/MBC, glycosides with or without polymyxins; assay type: cell-based, Escherichia coli; conditions: agent alone, no adjuvant (polymyxin conc. 0); strain B
HEK-293 cells = test system: HEK-293 cells; set-up: method as in PMID 30532748; conditions: polymyxin alone; cited from earlier work
[1] = Klebsiella pneumoniae, CQ1942, antibiotic alone, read-out: MIC (antibiotic susceptibility profile)
[2] = Escherichia coli, ATCC25922, antibiotic alone, read-out: MIC (antibiotic susceptibility profile)
[3] = Klebsiella pneumoniae, CQ1947, antibiotic alone, read-out: MIC (antibiotic susceptibility profile)
[4] = Klebsiella pneumoniae, CQ4921, antibiotic alone, read-out: MIC (antibiotic susceptibility profile)
[5] = Enterobacter cloacae, CQ1941, antibiotic alone, read-out: MIC (antibiotic susceptibility profile)
[6] = agent alone, no adjuvant (polymyxin conc. 0)

Compound | MIC (K. pneumoniae CQ1942; [1]) | MIC (E. coli ATCC 25922; [2]) | MIC (K. pneumoniae CQ1947; [3]) | MIC (antibiotic susceptibility profile) (P. aeruginosa CQ4924) | MIC (K. pneumoniae CQ4921; [4]) | MIC (antibiotic susceptibility profile) (A. baumannii CQ4322) | MIC (E. cloacae CQ1941; [5]) | RIS (susceptibility category) (P. aeruginosa CQ4924) | RIS (susceptibility category) (A. baumannii CQ4322) | other results
NC[C@H]1O[C@H](O[C@H]2[C@H](O)[C@@H](O[C@H]3O[C@H](CO)[C@@H](O)[C@H](N)[C@H]3O)[C@H](N)C[C@@H]2N)[C@H](N)C[C@@H]1O [Tobramycin, reference compound] | 16 µg/mL (≈ 34.2 µM) | 0.5 µg/mL (≈ 1.07 µM) | ≥ 128 µg/mL | 1 µg/mL (≈ 2.14 µM) | 0.25 µg/mL (≈ 0.535 µM) | 32 µg/mL (≈ 68.4 µM) | ≥ 128 µg/mL | – | – | –
CC1(C)S[C@@H]2[C@H](NC(=O)[C@H](N)c3ccc(O)cc3)C(=O)N2[C@H]1C(=O)O [Amoxicillin, reference compound] | ≥ 128 µg/mL | 4 µg/mL (≈ 10.9 µM) | ≥ 128 µg/mL | – | ≥ 128 µg/mL | – | ≥ 128 µg/mL | ERP | ERP | –
NCC[C@H](O)C(=O)N[C@@H]1C[C@H](N)[C@@H](O[C@H]2O[C@H](CN)[C@@H](O)[C@H](O)[C@H]2O)[C@H](O)[C@H]1O[C@H]1O[C@H](CO)[C@@H](O)[C@H](N)[C@H]1O [Amikacin, reference compound] | 16 µg/mL (≈ 27.3 µM) | 1 to 2 µg/mL (≈ 1.71 to 3.42 µM) | 32 µg/mL (≈ 54.6 µM) | 4 µg/mL (≈ 6.83 µM) | 0.5 to 2 µg/mL (≈ 0.854 to 3.42 µM) | ≥ 128 µg/mL | ≥ 128 µg/mL | – | – | –
polymyxin B [PMB, reference compound] | – | – | – | – | – | – | – | – | – | MIC (K. pneumoniae CQ1942; [6]): 0.5 µg/mL; MIC (E. coli ATCC 25922; [6]): 0.5 µg/mL; IC50 (HEK-293T cells): > 115 µg/mL; IC50 (Caco-2 cells): > 115 µg/mL; MIC (K. pneumoniae CQ1947; [6]): 0.5 µg/mL; MIC (P. aeruginosa CQ4924; [6]): 1 µg/mL; MIC (K. pneumoniae CQ4921; [6]): 0.5 µg/mL; MIC (E. coli NCTC 13846): 4 µg/mL; MIC (A. baumannii CQ4322; [6]): 0.5 µg/mL; MIC (E. cloacae CQ1941; [6]): 0.5 µg/mL; IC50 (HEK-293 cells): > 500 µg/mL
CC(C)(O/N=C(\C(=O)N[C@@H]1C(=O)N2C(C(=O)[O-])=C(C[n+]3ccccc3)CS[C@H]12)c1csc(N)n1)C(=O)O [Ceftazidime, reference compound] | ≥ 128 µg/mL | 0.125 to 0.25 µg/mL (≈ 0.229 to 0.457 µM) | ≥ 128 µg/mL | 4 µg/mL (≈ 7.32 µM) | 1 µg/mL (≈ 1.83 µM) | – | ≥ 128 µg/mL | – | – | –
C[C@@H](O)[C@H]1C(=O)N2C(C(=O)O)=C(S[C@@H]3CN[C@H](C(=O)Nc4cccc(C(=O)O)c4)C3)[C@H](C)[C@H]12 [Ertapenem, reference compound] | ≥ 128 µg/mL | 0.008 µg/mL (≈ 0.0168 µM) | 16 to 64 µg/mL (≈ 33.6 to 135 µM) | – | 8 to 64 µg/mL (≈ 16.8 to 135 µM) | – | 64 µg/mL (≈ 135 µM) | ERP | ERP | –
C[C@@H](O)[C@H]1C(=O)N2C(C(=O)O)=C(SCCN=CN)C[C@H]12 [Imipenem, reference compound] | ≥ 128 µg/mL | 0.125 to 0.25 µg/mL (≈ 0.418 to 0.835 µM) | 8 to 16 µg/mL (≈ 26.7 to 53.4 µM) | 16 µg/mL (≈ 53.4 µM) | 4 µg/mL (≈ 13.4 µM) | 32 to 64 µg/mL | 16 µg/mL (≈ 53.4 µM) | – | – | –
CO/N=C(\C(=O)N[C@@H]1C(=O)N2C(C(=O)[O-])=C(C[N+]3(C)CCCC3)CS[C@H]12)c1csc(N)n1 [Cefepime, reference compound] | > 64 µg/mL | 0.03 to 0.06 µg/mL (≈ 0.0624 to 0.125 µM) | 32 µg/mL (≈ 66.6 µM) | – | – | – | > 64 µg/mL | – | – | –
CO/N=C(\C(=O)N[C@@H]1C(=O)N2C(C(=O)O)=C(COC(C)=O)CS[C@H]12)c1csc(N)n1 [Cefotaxime, reference compound] | ≥ 128 µg/mL | 0.06 µg/mL (≈ 0.132 µM) | ≥ 128 µg/mL | – | 2 µg/mL (≈ 4.39 µM) | – | ≥ 128 µg/mL | ERP | ERP | RIS (susceptibility category) (K. pneumoniae CQ4921; antibiotic alone): I/R
C[C@@H](O)[C@H]1C(=O)N2C(C(=O)O)=C(S[C@@H]3CN[C@H](C(=O)N(C)C)C3)[C@H](C)[C@H]12 [Meropenem, reference compound] | ≥ 128 µg/mL | 0.016 to 0.03 µg/mL (≈ 0.0417 to 0.0782 µM) | 16 to 32 µg/mL (≈ 41.7 to 83.4 µM) | 16 µg/mL (≈ 41.7 µM) | 4 µg/mL (≈ 10.4 µM) | – | 32 to 64 µg/mL (≈ 83.4 to 167 µM) | – | – | –
CC1(C)S[C@@H]2[C@H](NC(=O)[C@H](N)c3ccccc3)C(=O)N2[C@H]1C(=O)O [Ampicillin, reference compound] | ≥ 128 µg/mL | 4 µg/mL (≈ 11.4 µM) | ≥ 128 µg/mL | – | ≥ 128 µg/mL | – | ≥ 128 µg/mL | ERP | ERP | –
CNC(C)C1CCC(N)C(OC2C(N)CC(N)C(OC3OCC(C)(O)C(NC)C3O)C2O)O1 (centres unmarked) [Gentamicin, reference compound] | 1 µg/mL (≈ 2.09 µM) | 0.5 µg/mL (≈ 1.05 µM) | 64 µg/mL (≈ 134 µM) | 2 µg/mL (≈ 4.19 µM) | 0.25 to 0.5 µg/mL (≈ 0.523 to 1.05 µM) | 32 to 64 µg/mL | ≥ 128 µg/mL | wt | – | –
C[C@H]1[C@H](NC(=O)/C(=N\OC(C)(C)C(=O)O)c2csc(N)n2)C(=O)N1S(=O)(=O)O [Aztreonam, reference compound] | > 64 µg/mL | – | 0.25 µg/mL (≈ 0.574 µM) | – | – | – | > 64 µg/mL | – | ERP | –
